Publication PMC7587356, “High-Throughput Screening for Inhibitors of the SARS-CoV-2 Protease Using a FRET-Biosensor” (Molecules, 2020)
Like-named read-outs stand apart in the source and are kept apart here.

Target: SARS-CoV-2 3CLpro (Severe acute respiratory syndrome coronavirus 2, UniProt P0DTD1)
Test: biochemical
Type: biochemical
Parameters: Replicate_1 / Replicate_2 / mean / mean (LOPAC_screen_w_protease): unit not given here
Settings: for inhibition at 5 µM: 4 h
[1] = sheet LOPAC_screen_w_protease, primary screen with protease, 5 µM, mean of two replicates
[2] = sheet LOPAC_screen_w_protease, primary screen with protease, 5 µM, replicate 1
[3] = sheet LOPAC_screen_w_protease, primary screen with protease, 5 µM, replicate 2
[4] = LOPAC1280 primary screen with protease, 5 µM compound, mean of the two replicates
[5] = sheet LOPAC_screen_w_protease, LOPAC1280 primary screen at 5 µM, with protease, mean of the two replicates
[6] = sheet LOPAC_screen_w_protease, LOPAC1280 primary screen at 5 µM, with protease, replicate 1
[7] = sheet LOPAC_screen_w_protease, LOPAC1280 primary screen at 5 µM, with protease, replicate 2
[8] = sheet LOPAC_screen_w_protease, primary screen of LOPAC1280 at 5 µM with protease, mean of the two replicates
[9] = sheet LOPAC_screen_w_protease, primary screen of LOPAC1280 at 5 µM with protease, replicate 1
[10] = sheet LOPAC_screen_w_protease, primary screen of LOPAC1280 at 5 µM with protease, replicate 2
[11] = LOPAC1280 primary screen with protease, 5 µM compound, replicate 1
[12] = LOPAC1280 primary screen with protease, 5 µM compound, replicate 2
[13] = LOPAC1280 primary screen with protease, 5 µM compound, mean of two replicates

**Q.** Which mean (sheet LOPAC_screen_w_protease, LOPAC1280 at 5 µM, mean of two replicates) does the source give for `C[N+](C)(C)CCCCCCCCCC[N+](C)(C)C.[Br-].[Br-]` [Decamethonium dibromide] here?
**A.** The mean was 1.23.

**Q.** And the Replicate_1 (sheet LOPAC_screen_w_protease, LOPAC1280 at 5 µM, replicate 1)?
**A.** Its Replicate_1 is 2.965.

**Q.** What about the Replicate_2 (sheet LOPAC_screen_w_protease, LOPAC1280 at 5 µM, replicate 2) of the same compound?
**A.** The Replicate_2 was -0.5048.

**Q.** How did the mean [1] turn out when `C=CC(N)CCC(=O)O` (racemic) [(±)-gamma-Vinyl GABA] was run?
**A.** The mean was -0.2228.

**Q.** What about the Replicate_1 [2] of the same compound?
**A.** The Replicate_1 was -0.2758.

**Q.** What about the Replicate_2 [3] of the same compound?
**A.** The Replicate_2 was -0.1698.

**Q.** `Cl.NCCCCC(=O)O` [5-Aminovaleric acid hydrochloride] was tested. Which mean [1] did it give?
**A.** Its mean is 0.3592.

**Q.** And the Replicate_1 [2]?
**A.** The Replicate_1 was 0.7789.

**Q.** What about the Replicate_2 [3] of the same compound?
**A.** Its Replicate_2 is -0.06046.

**Q.** Which inhibition at 5 µM (LOPAC1280 primary screen with protease, 5 µM compound, replicate 1, read-out: Replicate_1 (LOPAC_screen_w_protease)) does the source give for `COc1cc(-c2ccc(=O)[nH]n2)ccc1OC(F)F` [Zardaverine] here?
**A.** The inhibition at 5 µM was 2.27%.

**Q.** What about the inhibition at 5 µM (LOPAC1280 primary screen with protease, 5 µM compound, replicate 2, read-out: Replicate_2 (LOPAC_screen_w_protease)) of the same compound?
**A.** The inhibition at 5 µM was 1.55%.

**Q.** And the “mean (LOPAC_screen_w_protease)” value [4]?
**A.** Its value is 1.91.

**Q.** Which mean [5] does the source give for `COc1ccc(CNC(=O)/C=C/c2ccc3[nH]cc(CCN(C)C)c3c2)cc1` [GR 4661] here?
**A.** Its mean is 0.4567.

**Q.** And the Replicate_1 [6]?
**A.** The Replicate_1 was 1.411.

**Q.** What about the Replicate_2 [7] of the same compound?
**A.** Its Replicate_2 is -0.4976.

**Q.** Which mean [5] does the source give for `[Cl-].[Li+]` [Lithium Chloride] here?
**A.** Its mean is 0.7152.

**Q.** And the Replicate_1 [6]?
**A.** The Replicate_1 was 0.8231.

**Q.** What about the Replicate_2 [7] of the same compound?
**A.** The Replicate_2 was 0.6073.

**Q.** How did the mean [8] turn out when `Nc1cc(=O)[nH]c(N)n1` [2,6-Diamino-4-pyrimidinone] was run?
**A.** The mean was 3.421.

**Q.** What about the Replicate_1 [9] of the same compound?
**A.** Its Replicate_1 is 3.441.

**Q.** And the Replicate_2 [10]?
**A.** The Replicate_2 was 3.4.

**Q.** For `CCCCCCC(C(C)O)n1cnc2c(N)ncnc21.Cl` (stereo not drawn), which mean [8] is on record?
**A.** The mean was 3.427.

**Q.** What about the Replicate_1 [9] of the same compound?
**A.** The Replicate_1 was 4.751.

**Q.** And the Replicate_2 [10]?
**A.** Its Replicate_2 is 2.103.

**Q.** Which results are given for `CNC(=O)[C@H]1O[C@@H](n2cnc3c(NCc4cccc(I)c4)ncnc32)[C@H](O)[C@@H]1O` [IB-MECA]?
**A.** inhibition at 5 µM (sheet LOPAC_screen_w_protease, primary screen with protease, mean of two replicates, read-out: mean): 2.39%; inhibition at 5 µM (sheet LOPAC_screen_w_protease, primary screen with protease, replicate 1, read-out: Replicate_1): 2.72%; inhibition at 5 µM (sheet LOPAC_screen_w_protease, primary screen with protease, replicate 2, read-out: Replicate_2): 2.06%

**Q.** Which results are given for `COc1ccccc1NC(=O)Nc1nc(-c2cccnc2)nc2ccccc12` [VUF 5574]?
**A.** mean (sheet LOPAC_screen_w_protease, primary screen with protease, mean of two replicates): 2.164; Replicate_1 (sheet LOPAC_screen_w_protease, primary screen with protease, replicate 1): 1.496; Replicate_2 (sheet LOPAC_screen_w_protease, primary screen with protease, replicate 2): 2.8319

**Q.** How did the “mean (LOPAC_screen_w_protease)” value [4] turn out when `Cc1nc(N=Nc2ccc(C(=O)O)cc2)c(COP(=O)(O)O)c(C=O)c1O` [MRS 2159] was run?
**A.** The value was 1.803.

**Q.** And the “Replicate_1 (LOPAC_screen_w_protease)” value [11]?
**A.** The value was 1.948.

**Q.** What about the “Replicate_2 (LOPAC_screen_w_protease)” value [12] of the same compound?
**A.** Its value is 1.658.

**Q.** For `O=C(c1cc(O)c(O)c([N+](=O)[O-])c1)c1ccccc1F` [Ro 41-0960], which mean (sheet LOPAC_screen_w_protease, LOPAC1280 primary screen at 5 µM, with protease, mean of two replicates) is on record?
**A.** Its mean is -0.9763.

**Q.** What about the Replicate_1 [6] of the same compound?
**A.** Its Replicate_1 is -1.184.

**Q.** And the Replicate_2 [7]?
**A.** The Replicate_2 was -0.7687.

**Q.** Which inhibition at 5 µM (sheet LOPAC_screen_w_protease, LOPAC1280 primary screen at 5 µM, with protease, mean of two replicates, read-out: mean) does the source give for `C[N+]1(C)[C@@H]2C[C@@H](OC(=O)[C@H](CO)c3ccccc3)C[C@H]1[C@@H]1O[C@@H]12` [(-)-Scopolamine methyl bromide] here?
**A.** Its inhibition at 5 µM is -1.17%.

**Q.** What about the inhibition at 5 µM (sheet LOPAC_screen_w_protease, LOPAC1280 primary screen at 5 µM, with protease, replicate 1, read-out: Replicate_1) of the same compound?
**A.** Its inhibition at 5 µM is 0.833%.

**Q.** And the inhibition at 5 µM (sheet LOPAC_screen_w_protease, LOPAC1280 primary screen at 5 µM, with protease, replicate 2, read-out: Replicate_2)?
**A.** The inhibition at 5 µM was -3.16%.

**Q.** Which mean [8] does the source give for `Br.CCCN1CC[C@@H]2c3cc(O)ccc3CC[C@@H]21` (racemic) [cis-(±)-8-OH-PBZI hydrobromide] here?
**A.** Its mean is 4.0009.

**Q.** And the Replicate_1 [9]?
**A.** The Replicate_1 was 4.218.

**Q.** What about the Replicate_2 [10] of the same compound?
**A.** Its Replicate_2 is 3.784.

**Q.** What does the source list for `CC(C)(C)NCC(O)c1ccc(O)c(CO)c1.CC(C)(C)NCC(O)c1ccc(O)c(CO)c1.O=S(=O)(O)O` (stereo not drawn) [Albuterol hemisulfate]?
**A.** mean (LOPAC_screen_w_protease) [4]: 2.078; Replicate_1 (LOPAC_screen_w_protease) [11]: 2.563; Replicate_2 (LOPAC_screen_w_protease) [12]: 1.593

**Q.** For `CC(=O)C(C)=NO` [2,3-Butanedione monoxime], which “mean (LOPAC_screen_w_protease)” value [13] is on record?
**A.** The value was 1.644.

**Q.** And the “Replicate_1 (LOPAC_screen_w_protease)” value [11]?
**A.** Its value is 1.791.

**Q.** What about the “Replicate_2 (LOPAC_screen_w_protease)” value [12] of the same compound?
**A.** The value was 1.497.

**Q.** Which inhibition at 5 µM (sheet LOPAC_screen_w_protease, primary screen with protease, 5 µM, mean of two replicates, read-out: mean) does the source give for `O=C(O)c1nn(Cc2ccc(Cl)cc2Cl)c2ccccc12` [Lonidamine] here?
**A.** Its inhibition at 5 µM is 0.331%.

**Q.** And the inhibition at 5 µM (sheet LOPAC_screen_w_protease, primary screen with protease, 5 µM, replicate 1, read-out: Replicate_1)?
**A.** Its inhibition at 5 µM is 0.572%.

**Q.** And the inhibition at 5 µM (sheet LOPAC_screen_w_protease, primary screen with protease, 5 µM, replicate 2, read-out: Replicate_2)?
**A.** Its inhibition at 5 µM is 0.0889%.

**Q.** With `CCN(CC)CCNC(=O)c1ccc(NC(C)=O)cc1.Cl` [N-Acetylprocainamide hydrochloride] as the compound, how does the “mean (LOPAC_screen_w_protease)” value [13] read?
**A.** Its value is 1.374.

**Q.** And the “Replicate_1 (LOPAC_screen_w_protease)” value [11]?
**A.** The value was 0.6051.

**Q.** And the “Replicate_2 (LOPAC_screen_w_protease)” value [12]?
**A.** The value was 2.1421.

**Q.** `NC(=O)c1cccc(N)c1` [3-aminobenzamide] was tested. Which inhibition at 5 µM (sheet LOPAC_screen_w_protease, LOPAC1280 at 5 µM, mean of two replicates, read-out: mean) did it give?
**A.** The inhibition at 5 µM was 1.28%.

**Q.** And the inhibition at 5 µM (sheet LOPAC_screen_w_protease, LOPAC1280 at 5 µM, replicate 1, read-out: Replicate_1)?
**A.** The inhibition at 5 µM was 1.05%.

**Q.** What about the inhibition at 5 µM (sheet LOPAC_screen_w_protease, LOPAC1280 at 5 µM, replicate 2, read-out: Replicate_2) of the same compound?
**A.** The inhibition at 5 µM was 1.51%.

**Q.** With `O=C1Cc2c([nH]c3ccc(Br)cc23)-c2ccccc2N1` [Kenpaullone] as the compound, how does the inhibition at 5 µM (read-out: Replicate_1) read?
**A.** The inhibition at 5 µM was 1.52%.

**Q.** And the inhibition at 5 µM (read-out: Replicate_2)?
**A.** The inhibition at 5 µM was 3.46%.

**Q.** What about the inhibition at 5 µM (read-out: mean) of the same compound?
**A.** The inhibition at 5 µM was 2.49%.

**Q.** How did the inhibition at 5 µM (read-out: Replicate_1) turn out when `O=C(O)CCc1nc(-c2ccccc2)c(-c2ccccc2)o1` [Oxaprozin] was run?
**A.** Its inhibition at 5 µM is 3.59%.

**Q.** What about the inhibition at 5 µM (read-out: Replicate_2) of the same compound?
**A.** The inhibition at 5 µM was 3.25%.

**Q.** And the inhibition at 5 µM (read-out: mean)?
**A.** Its inhibition at 5 µM is 3.42%.
